“And” between values parts separate entries of the source, which are not always exact repeats. Identical values can stand only once. Peptide text beside a SMILES is read from it.
Key:
Stability in water = type: physicochemical; settings: 1 mg/mL in sterile water, 37 °C, 24 h; HPLC Luna C18(2), PDA; 3 independent experiments, n=3 (Figure S1)
Procedure: A stock of IM peptide in sterile water (1 mg/mL) was prepared and divided into 200 µL portions. The sample tubes were stored in an incubator at 37 °C and analysis was performed at various time points (0, 1, 2, 3, 6, and 24 h). The analyses were performed by HPLC using a Luna C18(2) (5 µm, 100 Å 4.6 by 250 mm) column (Phenomenex, Torrance, CA, USA) and monitored by a PDA detector. Then, 0.01% TFA in H2O (A) and 0.01% TFA in 80% ACN in water (B) were used as solvents. A linear gradient of 5–100% B over 60 min and a flow rate of 1 mL/min was applied.
For calculations, peak areas were compared to a calibration curve calculated by LC solution Software (Shimadzu, Kyoto, Japan).

ASCs = experiment: Migration assay, ibidi culture inserts; type: cell-based, human; settings: 0.1 µg/mL, 24 h; n=16
Procedure: (§1) The effect of IM on cell migration after 24 h was determined using ibidi culture inserts (ibidi, Cat. No. 81176, Gräfelfing, Germany). Cells were seeded in culture inserts, at a density of 30,000 per well, in appropriate medium supplemented with 10% FBS, which was changed to serum-free DMEM after 24 h. Mitomycin C (5 μg/mL) was added for 2 h to block cell proliferation. The medium was then changed, again, and cells were stimulated with an appropriate concentration of IM. After 24 h the cells were fixed with 3.7% paraformaldehyde, stained with 0.05% crystal violet, and the effect was measured with a phase-contrast fluorescent microscope (Zeiss, Oberkochen, Germany) and the surface areas were counted with Imaging Software NIS-Element Basic Research program.

HaCaT keratinocytes = experiment: Migration assay, ibidi culture inserts; type: cell-based, human; settings: 0.1 and 1 µg/mL, 24 h, mitomycin C pre-treatment, serum-free; n=12 (Figure S7A)
Procedure: as §1

skin cells = experiment: Migration assay, ibidi culture inserts; type: cell-based, human; settings: 0.1 and 1 µg/mL, 24 h
Procedure: as §1

C57BL/6 mice = experiment: Ear pinna injury, ear punch closure; type: in vivo, mouse
Procedure: Experiments were performed on 8–12 week-old female BALB/c (24 mice in total) and C57BL/6 mice (36 mice in total). All mice originated from the Centre for Experimental Medicine of the Medical University of Białystok, Poland, and were kept in the animal facility at the Nencki Institute of Experimental Biology throughout the course of the study. After delivery to the Nencki Institute animal facility, mice rested for at least two weeks for acclimatization before starting the experiment. Experiments were approved by the First Local Ethics Committee in Warsaw (permit No. 491/2013 and 542/2018). Animal experimentation was performed in accordance with EU directive 2010/63/EU, and all experiments were undertaken in such a way as to minimize discomfort and the number of animals used in the study.
Mice were placed individually in separate cages, weighed, and randomly divided into two groups within each mouse strain: The treatment group and the control group. Before the study all mice were randomly given numerical equivalents, and all experimenters performing further analysis were not aware of the experimental group and referred solely to those numbers. Similarly, vials containing IM (treatment) or saline (control) were encrypted and assigned to particular mice, so the person performing injections and ear photographs was not aware of mice background. Lastly, the person quantifying each ear hole closure was not aware of the group. Numerical equivalents of each mice were only decrypted at the end of the study. […]
To monitor the progress of wound healing, ears were photographed on the day of the injury (day 0, before and right after pinna injury), and on days 7, 14, 21, 28, 35, and 42. […] Finally, the area of the wound hole was outlined by hand on digitized images as an overlay, and the hole areas in the ears were evaluated using computer-assisted image analysis (ImageJ Software). […] The final number of analyzed ears was 23 per group on day 42. […] The final number of analyzed ears on day 42 was 32 in the control group and 16 in the treatment group.

patients = tested on: patients; parameters: method as in PMID 18475748; settings: subcutaneous injection in patients, response to diphtheria toxoid vaccination; cited from earlier work

**Q.** For CC(C)[C@H](NC(=O)[C@H](CCCCN)NC(=O)[C@H](CC(=O)O)NC(=O)[C@@H](N)CCCNC(=N)N)C(=O)N[C@@H](Cc1ccc(O)cc1)C(=O)N[C@@H](CCCNC(=N)N)C(=O)O [IM, H-Arg-Asp-Lys-Val-Tyr-Arg-OH] (H-RDKVYR-OH), which “signal from the IM peptide after incubation in water” value (Stability in water) is on record?
**A.** no reduction of the signal

**Q.** What about the “promigratory effect compared to the control” value (ASCs) of the same compound?
**A.** 10–15%

**Q.** What about the “inhibition of migration compared to the control” value (HaCaT keratinocytes) of the same compound?
**A.** 5–10%

**Q.** And the “stimulation of migration of skin cells” value (skin cells)?
**A.** does not stimulate migration

**Q.** What about the “mean ear hole area” value (C57BL/6 mice; C57BL/6, day 42 post-injury, 2 mm punch, s.c. 5.0 µg/g, 10 injections, mean ± SD, saline control 3.10 ± 0.74) of the same compound?
**A.** 1.67 ± 0.45 mm^2

**Q.** What about the ear hole closure (C57BL/6 mice; C57BL/6, day 42 post-injury, s.c. 5.0 µg/g, 10 injections, mean ± SD, saline control 8.0% ± 36.8%) of the same compound?
**A.** 43.6% ± 13.9% and 44%

**Q.** What about the “tissue repair in comparison to control” value (C57BL/6 mice; C57BL/6, ear pinna injury, as summarised in the abstract) of the same compound?
**A.** 36%

**Q.** And the “levels of interleukin-6 (IL-6) and tumor necrosis factor (TNF)” value (patients)?
**A.** decreasing levels

Source: publication PMC7355430, “Imunofan—RDKVYR Peptide—Stimulates Skin Cell Proliferation and Promotes Tissue Repair” (Molecules, 2020)
